Test results published in patent US20070225279A1, “Therapeutic combinations for the treatment of depression” (Wyeth, priority 2006, published 2007).

Assays:
Male Swiss Webster mice [1] = test: Tail suspension test; assay type: in vivo; conditions: for decrease in immobility time: cotreated 30 minutes prior to the test
Description: Compound 1, [drawing 11] was used to exemplify the effectiveness of compounds of the present invention in the tail suspension test. While not a direct model of depression, the tail suspension test is an assay that can evaluate antidepressant-like effects of drugs. […] Specifically, they decrease the amount of time the mice spend immobile after being hung upside down by their tails during the test. It is impossible to determine if a mouse is indeed depressed. However, the fact that clinically effective antidepressants reduce immobility lends predictive validity to the model. Animals
Male Swiss Webster mice (Charles River) weighing 25-35 g were used throughout this study. They were housed in groups of five per cage in an AALAC-accredited facility that was maintained on a 12-h light dark cycle (lights on at 0600 h) and had free access to food and water. Experimental groups consisted of 12 mice, randomly assigned to treatment groups. All experiments were performed between 9:00 AM and noon in accordance to the Guide for the Care and Use of Laboratory Animals as adopted and promulgated by the National Institutes of Health (Pub. 85-23, 1985).
Solutions of Compound 1 and paroxetine were freshly prepared; each dissolved in distilled water. All drugs were injected i.p. at a volume of 10 ml/kg body weight. Combination treatments were cotreated, 30 minutes prior to the test.
The procedure followed in this study was a variant of the one originally described by Steru et al. (1985). 30 minutes following treatment, the mice were suspended upside down by the tail using adhesive laboratory tape (VWR International), to a flat metal bar connected to a strain gauge within a tail suspension chamber (Med Associates). The time spent immobile during a 6-minute test session was automatically recorded. 8 mice were simultaneously tested within separate chambers. Data collected were expressed as a mean of immobility time and statistical analysis was performed using a one-way ANOVA with least significant difference (LSD) post-hoc test.

Male Swiss Webster mice [2] = conditions: general statement on clinically effective drugs; cited from earlier work

Which decrease in immobility (Male Swiss Webster mice [1]; 30 mg/kg paroxetine alone, i.p., 30 minutes prior to the test, ns) does the source give for `Fc1ccc([C@@H]2CCNC[C@H]2COc2ccc3c(c2)OCO3)cc1` (relative stereo) [paroxetine, trans-(−)-3-[(1,3-benzodioxol-5-yloxy)methyl]-4-(4-fluorophenyl)piperidine, reference compound] here?
The decrease in immobility was 18%.

Which results are given for `c1cc2c3c(c1)[C@H]1CCC[C@H]1N3CCNC2` [Compound 1]?
decrease in immobility time (Male Swiss Webster mice [1]; 1 mg/kg Compound 1 in combination with 30 mg/kg paroxetine, i.p.): 24%; decrease in immobility time (Male Swiss Webster mice [1]; 3 mg/kg Compound 1 in combination with 30 mg/kg paroxetine, i.p.): 35%; antidepressant-like effect (immobility time) in tail suspension test (Male Swiss Webster mice [1]; Compound 1 alone, 1 or 3 mg/kg i.p., 30 minutes prior to the test, 6-minute session): Neither dose of Compound 1 (1 or 3 mg/kg) produced an antidepressant-like effect alone

For `CNCCC(Oc1ccc(C(F)(F)F)cc1)c1ccccc1` (centres unmarked) [fluoxetine, N-methyl-3-(p-trifluoromethylphenoxy)-3-phenylpropylamine], which “effectiveness in tail suspension assay (decrease of time spent immobile)” value (Male Swiss Webster mice [2]) is on record?
Its value is “effective in this assay”.
